Experiments:
Format in all cases: cell-based, human
[1] = tested on: MYCN gene; assay: QT-PCR, MYCN mRNA in RH30 cells; conditions: Table 9, siRNA and siRNA gapmer used at 200 nM with Lipofectamine 2000
Protocol: For the purpose of assessing the ability of the oligonucleotides of the present invention to modulate the expression of the target genes, their ability to reduce the quantity of messenger RNA was analyzed using the Real-Time PCR technique. For this purpose, use was made of 24-well plates, which were seeded with 5.0×10^4 cells with 0.3 ml of OPTI-MEM (GIBCO BRL) medium, 4% FBS and 2 mM L-glutammine (experiments in triplicate) per well. The cells were incubated for 24 hours at 37° C., in an atmosphere containing 5% CO2 to permit adherence to the base of the wells. Each oligonucleotide analyzed, except for the PNA oligonucleotides, was incubated beforehand with 2 μl of Lipofectamine 2000 (Invitrogen), with 0.3 mL of serum-free OPTI-MEM (GIBCO BRL) medium. For each well, the oligonucleotides were analyzed at the following final concentrations: • the antisense oligonucleotides siRNA and siRNA gapmer (i.e. the oligonucleotides containing one or more monomers of chemically modified nucleic acids at the 3' or 5' end, while in the central portion they have monomers of nucleic acids that have not been modified or have been modified at the level of the phosphodiester bond as a phosphorothioate bond) were used at 200 nM; • the antisense oligonucleotides containing phosphorothioate DNA monomers, the RNA antigene oligonucleotides (agRNA) and the oligonucleotides containing DNA monomers and LNA monomers were used at 10 μM; • the morpholino oligonucleotides were used at a concentration of 1 μM, and • the PNA oligonucleotides were administered at a concentration of 1 μM. The cells were treated with the oligonucleotides, adding FBS up to 4% 6 hours after administration of the same. After 24 hours the total RNA was extracted from each well and purified using the RNeasy Mini Kit (QIAGEN). Assays were performed on 8 cell lines obtained from 5 different human tumours which are correlated with MYCN expression, i.e.: • as a neuroblastoma model use was made of the cell lines Kelly, IMR-32 (where the MYCN gene is amplified and superexpressed) and SKNBE2c and LAN1 (where the MYCN gene is amplified and superexpressed and the p53 gene is mutated); • as a rabdomiosarcoma model use was made of the cell line RH30, where the MYCN gene is amplified and superexpressed; • as a Wilms' tumour model use was made of the cell line WiT49, where the MYCN gene is amplified and superexpressed; • as a retinoblastoma model use was made of the cell line Y79, where the MYCN gene is amplified and superexpressed; and • as a model of small cell lung cancer use was made of the cell line H69 where the MYCN gene is amplified and superexpressed. As a control, use was made of the same cell lines as listed above treated with sterile water instead of oligonucleotides. Each RNA sample was quantified (in duplicate) using a NanoDrop ND-1000 spectrophotometer (NanoDrop Technologies). The first strand of cDNA was produced using the cDNA Synthesis Kit for RT-PCR (Roche). For the cDNA synthesis reaction a total of 1 μg of RNA was used. For the real-time PCR, 10 ng of cDNA in a final volume of 20 μl was used with SYBR Green Master Mix 2× (Applied Biosystems) (3 identical experiments were conducted in triplicate). Two housekeeping genes were used as positive controls: GAPDH and beta-actin (ACTB). The conditions of the QT-PCR reaction were: 10 min at 95° C., 20 sec at 95° C., and 30 sec at 60° C., for 50 cycles. The PNAs having SEQ ID NO: 1-12 were also tested on different cell lines which overexpress MYCN (Kelly, SKNBE2c, RH30, […] 1 and H69). The results are shown in Table 6 and confirm the selectivity and specificity of the inhibition effect of the PNAs on the product of protein translation of the MYCN gene. Chimeric oligonucleotides comprising DNA monomers and LNA monomers and having the MYCN gene as their target were tested in vitro on alveolar rabdomyosarcoma cells (RH30). […]

[2] = tested on: rabdomyosarcoma cells (RH30); assay: Cellular proliferation assay (ATP-Lite), RH30 cells; conditions: Table 9, siRNA and siRNA gapmer used at 200 nM
Protocol: For the purpose of assessing the gene modulation ability of the oligonucleotides of the present invention, the effect of their administration on cell viability was determined. For this purpose 5×10^3 cells per well were seeded into 96-well cell culture plates (experiments conducted in triplicate) with 100 μl of OPTI-MEM (GIBCO BRL) medium containing 4% FBS and 2 mM of L-glutammine. The PNA oligonucleotides were administered at different concentrations (1 μM-2.5 μM-5 μM-10 μM) in order to observe a dose-effect relationship. As regards all the other oligonucleotides, the concentrations at which they administered are listed in the paragraph: The viability of the treated cells was determined at 48, 72, 96 and 168 hours after treatment. Cell viability was assessed by means of an ATP-Lite assay (Luminescence ATP Detection Assay System, PerkinElmer) and is reported as the ratio between the average signal of the treated wells compared to the average value of the wells of untreated control cells. The cells were processed following the instructions provided with the kit. The assays were performed on the same cell lines used to determine the levels of the MYCN gene messenger and listed in the paragraph: Treatments with Oligonucleotides-QT-PCR. The PNAs having SEQ ID NO: 1-12 were also tested on different cell lines which overexpress MYCN (Kelly, SKNBE2c, RH30, […] 1 and H69). The results are shown in Table 6 and confirm the selectivity and specificity of the inhibition effect of the PNAs on the product of protein translation of the MYCN gene. Chimeric oligonucleotides comprising DNA monomers and LNA monomers and having the MYCN gene as their target were tested in vitro on alveolar rabdomyosarcoma cells (RH30). […] The antisense oligonucleotides designed and synthesized by the Applicant according to the parameters described in the present invention were analyzed in vitro on rabdomyosarcoma cells (RH30).

[3] = tested on: Kelly cells; assay: Cellular proliferation assay (ATP-Lite), Kelly cells; conditions: Table 7, SEQ ID NO: 5 and guanine-group mutants
Protocol: For the purpose of assessing the gene modulation ability of the oligonucleotides of the present invention, the effect of their administration on cell viability was determined.
For this purpose 5×10^3 cells per well were seeded into 96-well cell culture plates (experiments conducted in triplicate) with 100 μl of OPTI-MEM (GIBCO BRL) medium containing 4% FBS and 2 mM of L-glutammine.
The PNA oligonucleotides were administered at different concentrations (1 μM-2.5 μM-5 μM-10 μM) in order to observe a dose-effect relationship.
As regards all the other oligonucleotides, the concentrations at which they administered are listed in the paragraph:
The viability of the treated cells was determined at 48, 72, 96 and 168 hours after treatment.
Cell viability was assessed by means of an ATP-Lite assay (Luminescence ATP Detection Assay System, PerkinElmer) and is reported as the ratio between the average signal of the treated wells compared to the average value of the wells of untreated control cells. The cells were processed following the instructions provided with the kit.
The assays were performed on the same cell lines used to determine the levels of the MYCN gene messenger and listed in the paragraph: Treatments with Oligonucleotides—QT-PCR.
(§1) As far as the PNA oligonucleotides are concerned, the results regarding their ability to inhibit the transcription of the MYCN gene and proliferation of Kelly cells are shown in Table 1.
The ability of the tested oligonucleotides to inhibit the messenger of the gene of interest was measured and the proliferative capacity of the cells following administration of the oligonucleotides was also assessed.

[4] = tested on: MYCN gene; assay: QT-PCR, MYCN mRNA in Kelly cells; set-up: mRNA Inhibition (%)(Kelly): concentration or dose not given beside the values; conditions: for mRNA Inhibition (%)(Kelly): Table 7, SEQ ID NO: 5 and guanine-group mutants
Protocol: For the purpose of assessing the ability of the oligonucleotides of the present invention to modulate the expression of the target genes, their ability to reduce the quantity of messenger RNA was analyzed using the Real-Time PCR technique.
For this purpose, use was made of 24-well plates, which were seeded with 5.0×10^4 cells with 0.3 ml of OPTI-MEM (GIBCO BRL) medium, 4% FBS and 2 mM L-glutammine (experiments in triplicate) per well.
The cells were incubated for 24 hours at 37° C., in an atmosphere containing 5% CO2 to permit adherence to the base of the wells.
Each oligonucleotide analyzed, except for the PNA oligonucleotides, was incubated beforehand with 2 μl of Lipofectamine 2000 (Invitrogen), with 0.3 mL of serum-free OPTI-MEM (GIBCO BRL) medium.
For each well, the oligonucleotides were analyzed at the following final concentrations: • the antisense oligonucleotides siRNA and siRNA gapmer (i.e. the oligonucleotides containing one or more monomers of chemically modified nucleic acids at the 3′ or 5′ end, while in the central portion they have monomers of nucleic acids that have not been modified or have been modified at the level of the phosphodiester bond as a phosphorothioate bond) were used at 200 nM; • the antisense oligonucleotides containing phosphorothioate DNA monomers, the RNA antigene oligonucleotides (agRNA) and the oligonucleotides containing DNA monomers and LNA monomers were used at 10 μM; • the morpholino oligonucleotides were used at a concentration of 1 μM, and • the PNA oligonucleotides were administered at a concentration of 1 μM.
The cells were treated with the oligonucleotides, adding FBS up to 4% 6 hours after administration of the same. After 24 hours the total RNA was extracted from each well and purified using the RNeasy Mini Kit (QIAGEN).
Assays were performed on 8 cell lines obtained from 5 different human tumours which are correlated with MYCN expression, i.e.: • as a neuroblastoma model use was made of the cell lines Kelly, IMR-32 (where the MYCN gene is amplified and superexpressed) and SKNBE2c and LAN1 (where the MYCN gene is amplified and superexpressed and the p53 gene is mutated); • as a rabdomiosarcoma model use was made of the cell line RH30, where the MYCN gene is amplified and superexpressed; • as a Wilms' tumour model use was made of the cell line WiT49, where the MYCN gene is amplified and superexpressed; • as a retinoblastoma model use was made of the cell line Y79, where the MYCN gene is amplified and superexpressed; and • as a model of small cell lung cancer use was made of the cell line H69 where the MYCN gene is amplified and superexpressed.
As a control, use was made of the same cell lines as listed above treated with sterile water instead of oligonucleotides. Each RNA sample was quantified (in duplicate) using a NanoDrop ND-1000 spectrophotometer (NanoDrop Technologies). The first strand of cDNA was produced using the cDNA Synthesis Kit for RT-PCR (Roche). For the cDNA synthesis reaction a total of 1 μg of RNA was used. For the real-time PCR, 10 ng of cDNA in a final volume of 20 μl was used with SYBR Green Master Mix 2× (Applied Biosystems) (3 identical experiments were conducted in triplicate). Two housekeeping genes were used as positive controls: GAPDH and beta-actin (ACTB).
The conditions of the QT-PCR reaction were: 10 min at 95° C., 20 sec at 95° C., and 30 sec at 60° C., for 50 cycles.
as §1
The oligonucleotides were tested in vitro (at a concentration of 2.5 μM) to determine their ability to inhibit the transcription of the gene they are directed against by measuring the levels of the gene messenger in cellular models in which the gene of interest is overexpressed. The methods used are the ones described in example 1. […]

| Substance | mRNA inhibition (%) [1] [%] | Cell Prolif. (%) [2] [%] | (Kelly) Cell Prolif. % [3] [%] | mRNA Inhibition (%)(Kelly) [4] [%] | inhibitory activity ([4]; all groups of consecutive guanines of SEQ ID NO: 5 mutated) |
| --- | --- | --- | --- | --- | --- |
| SEQ ID NO: 35: double-stranded chimeric RNA / LNA siRNA against MYCN, sense GAGGAAGAUGAAGAGGAAGTT, antisense SEQ ID NO: 64 (antisense CUUCCUCUUCAUCUUCCUCTT; RNA with some LNA monomers, positions not given here) | 34 | 68 | – | – | – |
| SEQ ID NO: 33: double-stranded chimeric RNA / 2′O-Methyl siRNA against MYCN, sense GAGGAAGAUGAAGAGGAAGTT, antisense SEQ ID NO: 62 (antisense CUUCCUCUUCAUCUUCCUCTT; RNA with some 2'-O-methyl monomers, positions not given here) | 13 | 85 | – | – | – |
| SEQ ID NO: 29: double-stranded siRNA against MYCN, sense GAGGAAGAUGAAGAGGAAG, antisense SEQ ID NO: 60 (antisense CUUCCUCUUCAUCUUCCUC; listed as RNA, chemistry not given here) | 85 | 28 | – | – | – |
| SEQ ID NO: 44: PNA GCTGAGTGGATGCGTG, modified SEQ ID NO: 5 with groups of consecutive guanines mutated (all peptide nucleic acid (PNA); antigene PNA, 3' carrier peptide conjugation not given here per molecule) | – | – | 89 | 25 | – |
| SEQ ID NO: 46: PNA GTTGGGTGGATGTGGG, modified SEQ ID NO: 5 (all peptide nucleic acid (PNA); antigene PNA, 3' carrier peptide conjugation not given here per molecule) | – | – | 60 | 58 | – |
| SEQ ID NO: 43: PNA GCTGAGTCGATGCGTG, SEQ ID NO: 5 with all groups of consecutive guanines mutated (all peptide nucleic acid (PNA); antigene PNA, 3' carrier peptide conjugation not given here per molecule) | – | – | 100 | 0 | inhibitory activity of the PNAs to be lost |
| SEQ ID NO: 45: PNA GCTGGGTCGATGCGGG, modified SEQ ID NO: 5 with a group of consecutive guanines mutated (all peptide nucleic acid (PNA); antigene PNA, 3' carrier peptide conjugation not given here per molecule) | – | – | 69 | 47 | – |

Source: patent publication US10752900B2, “Oligonucleotides for modulating gene expression and uses thereof” (BIOGENERA S.P.A., priority 2012, dated 2020)
